Data taken from PMC5064002, “Sintokamide A Is a Novel Antagonist of Androgen Receptor That Uniquely Binds Activation Function-1 in Its Amino-terminal Domain” (The Journal of Biological Chemistry, 2016).

What was measured:
[1] = molecular target: T1, AR interaction with STAT3 (Homo sapiens, UniProt P10275, T878A); experiment: Co-immunoprecipitation of AR with STAT3 in LNCaP cells; type: cell-based; details: EPI-002 35 μM or SINT1 20 μM, 50 ng/ml IL-6 6 h
T1 construct: endogenous in cells; host or cells: LNCaP
T1 sequence (P10275 1-920 T878A): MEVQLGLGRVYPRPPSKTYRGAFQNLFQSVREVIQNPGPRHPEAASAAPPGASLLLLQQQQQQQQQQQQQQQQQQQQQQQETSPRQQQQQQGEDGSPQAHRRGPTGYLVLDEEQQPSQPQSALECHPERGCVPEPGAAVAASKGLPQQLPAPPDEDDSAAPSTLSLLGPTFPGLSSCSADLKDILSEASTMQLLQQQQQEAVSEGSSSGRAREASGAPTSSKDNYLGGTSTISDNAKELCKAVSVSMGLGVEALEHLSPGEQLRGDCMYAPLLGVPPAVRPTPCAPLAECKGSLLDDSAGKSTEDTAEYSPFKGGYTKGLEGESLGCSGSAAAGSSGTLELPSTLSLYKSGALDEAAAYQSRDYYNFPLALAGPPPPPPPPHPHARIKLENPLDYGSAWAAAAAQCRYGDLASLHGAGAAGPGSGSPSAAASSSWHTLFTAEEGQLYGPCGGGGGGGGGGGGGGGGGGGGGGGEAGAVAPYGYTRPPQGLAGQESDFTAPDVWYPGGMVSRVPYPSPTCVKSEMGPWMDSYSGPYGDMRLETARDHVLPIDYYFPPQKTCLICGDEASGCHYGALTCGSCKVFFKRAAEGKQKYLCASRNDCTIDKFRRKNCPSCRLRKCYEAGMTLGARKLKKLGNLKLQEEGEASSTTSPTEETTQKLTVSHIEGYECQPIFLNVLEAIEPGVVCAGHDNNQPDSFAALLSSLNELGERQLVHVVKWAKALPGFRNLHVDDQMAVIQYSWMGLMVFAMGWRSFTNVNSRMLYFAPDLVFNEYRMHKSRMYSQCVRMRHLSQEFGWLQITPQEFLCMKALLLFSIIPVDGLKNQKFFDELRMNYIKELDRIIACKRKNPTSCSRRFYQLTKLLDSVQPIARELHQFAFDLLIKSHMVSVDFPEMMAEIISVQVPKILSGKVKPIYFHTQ
Description: LNCaP cells were preincubated with EPI-002 (35 μM), SINT1 (20 μM), or DMSO (vehicle control) for 1 h before treatment for 6 h with 50 ng/ml IL-6. Whole cell lysates were prepared from harvested cells in modified radioimmune precipitation assay buffer. Cell lysates were precleared with 2 μg of normal mouse IgG and 20 μl of Protein A/G PLUS-agarose beads (Santa Cruz Biotechnology) to remove nonspecific bead binding. Total STAT3 was immunoprecipitated with 10 μg of antibody against STAT3 (124H6) or 10 μg of normal mouse IgG as a negative control followed by probing the immunoblot with anti-AR antibody (AR-N20; 1:1000) and anti-STAT3 antibody (124H6; 1:1000) and normalizing to levels of β-actin (1:10,000) as loading controls. The input lanes were loaded with 5 μg of the starting cell lysate. The relative density of AR for each immunoprecipitated sample was quantified by ImageJ software and normalized to levels of STAT3 pulled down.

LNCaP cells = test system: LNCaP cells; parameters: method as in PMID 18834139; details: cited from earlier work
[2] = molecular target: T2, glucocorticoid receptor (GR)-α (Homo sapiens, UniProt P04150); experiment: Steroid receptor specificity: GRE-luciferase reporter in LNCaP cells; type: cell-based; details: 10 μM compound, 10 nM dexamethasone, 48 h
T2 construct: expressed in transfected cells; host or cells: LNCaP
T2 sequence (P04150 1-777): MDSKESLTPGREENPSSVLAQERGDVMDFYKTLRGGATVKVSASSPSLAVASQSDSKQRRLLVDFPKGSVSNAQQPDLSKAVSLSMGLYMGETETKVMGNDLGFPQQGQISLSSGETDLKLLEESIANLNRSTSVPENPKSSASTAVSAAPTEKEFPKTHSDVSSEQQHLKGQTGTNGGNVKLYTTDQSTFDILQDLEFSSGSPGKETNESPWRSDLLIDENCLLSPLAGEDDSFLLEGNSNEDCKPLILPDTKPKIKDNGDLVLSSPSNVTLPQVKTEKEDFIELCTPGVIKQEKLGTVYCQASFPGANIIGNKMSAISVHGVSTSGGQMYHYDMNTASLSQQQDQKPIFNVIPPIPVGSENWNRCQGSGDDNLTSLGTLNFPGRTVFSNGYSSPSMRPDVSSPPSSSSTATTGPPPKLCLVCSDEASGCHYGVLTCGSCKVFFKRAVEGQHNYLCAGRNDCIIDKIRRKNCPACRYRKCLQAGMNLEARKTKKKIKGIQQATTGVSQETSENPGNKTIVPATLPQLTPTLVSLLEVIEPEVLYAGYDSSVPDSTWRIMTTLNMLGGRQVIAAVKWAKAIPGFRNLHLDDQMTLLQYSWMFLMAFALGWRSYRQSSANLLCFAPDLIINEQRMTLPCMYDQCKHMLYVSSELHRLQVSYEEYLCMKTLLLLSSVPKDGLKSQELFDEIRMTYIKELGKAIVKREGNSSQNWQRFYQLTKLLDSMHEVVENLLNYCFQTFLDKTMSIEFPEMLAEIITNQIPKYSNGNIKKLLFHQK
Description: LNCaP cells were transfected with the reporter plasmid PSA(6.1kb)-luciferase, PRE-luciferase, or GRE-luciferase and expression vector for progesterone receptor (PR)-β or glucocorticoid receptor (GR)-α in serum-free, phenol red-free medium using Lipofectin (Invitrogen). […] After 48 h of treatment, cells were lysed and analyzed for luciferase activities.
FIGURE 1. […] A, LNCaP cells were transfected with PSA (6.1 kb)-luciferase, PRE-luciferase, or GRE-luciferase reporters and expression vector for PRβ or GRα. […] Error bars represent mean percentage of vehicle activity ±S.E. of at least three independent experiments with triplicate wells. SINT1, 10 μM; […]; ***, p < 0.001. […]. Error bars represents mean ± S.E. of three technical replicates. […] DAPI staining indicates the location of the nucleus. Scale bars, 20 μm.

SMILES | interaction between AR and STAT3 [1] | androgen-dependent growth of LNCaP cells (LNCaP cells) | GR transcriptional activity (GRE-luciferase) [2]
CC(C)(c1ccc(OC[C@H](O)CO)cc1)c1ccc(OC[C@H](O)CCl)cc1 [EPI-002, reference compound] | inhibited interaction |  | 
CCC(=O)NC(CC(C)C(Cl)(Cl)Cl)C(=O)N1C(=O)C=C(OC)C1CC(C)C(Cl)Cl (stereo not shown) [SINT1, Sintokamide A] | did not | block | did not affect
